Measurements published in US20110250135A1, “Piperazine Derivatives for Binding and Imaging Amyloid Plaques and Their Use” (Bayer Schering Pharma Aktiengesellschaft, priority 2008, published 2011).

Tests used:
[1] = Biodistribution: organ distribution of F-18 signal in mice; type: in vivo, male NMRI mice; details: for Organ distribution of F-18 signal, intestine: intestine (with content); for Organ distribution of F-18 signal, stomach: stomach (without content)
Experimental: Biodistribution and excretion studies were performed in male NMRI mice (body weight app. 30g; 3 animals per time point). The animals were kept under normal laboratory conditions at a temperature of 22±2° C. and a dark/light rhythm of 12 hours. Food and water were provided ad libitium. During an acclimation period of at least 3 days before the beginning of the study animals were clinically examined to ascertain the absence of abnormal clinical signs. At 2, 5, 30, 60, 240 min post intravenous injection via the tail vein of ca. 150 kBq in 100 μl of the test compound, urine and feces were quantitatively collected. At the same time points, animals were sacrificed by decapitation and under isoflurane anaesthesia and the following organs and tissues were removed for the determination of radioactivity using a gamma-counter: spleen, liver, kidney, lung, femur, heart, brain, fat, thyroid, muscle, skin, blood, tail, stomach (without content), testicle, intestine (with content), pancreas, adrenals, and the remaining body. For analysis the decay corrected percentage of the injected dose per tissue weight (% ID/g±standard deviation) was calculated.

[2] = target: T1, Aβ plaques (Homo sapiens, UniProt P05067); assay: Autoradiographical analysis of binding to cryosections from cortex of AD patients and controls; details: F-18 labeled compound; Alzheimer's disease patients (AD) vs controls without Aβ plaques
T1 construct: controls without Aβ plaques; from tissue; host or cells: frontal lobe / cortex sections (frozen and paraffin) from AD patients, FTD patients and age-matched controls
Text: Fresh frozen as well as paraffin embedded sections of the frontal lobe from Alzheimer's dementia patients, frontotemporal dementia patients and age matched controls were used for the study. Frozen sections, sliced at 18 μm thickness on a cryostate (Leica, Germany) and paraffin sections, sliced on a sliding microtom (Leica) at a thickness of 6 μm, were mounted onto glass slides (Superfrost Plus, Fa.Menzel, Braunschweig Germany). Frozen sections were allowed to adhere to the slides for several nights at −20° C. The paraffin sections were deparaffinized using routine histological methods. For binding studies sections were incubated with the F-18 labeled test compound at 10 Bq/μl diluted in 25 mM Hepes buffer, pH 7.4, 0.1% (BSA) (200-300 μl/slide) for 1.5 hour at room temperature in a humidified chamber. For blocking experiments a 1000-fold access of the unlabeled test substance was added to the incubation mixture. After hybridization, sections were washed four times with Hepes buffer, 0.1% BSA (or alternatively two times with 40% ethanol) and finally dipped two times into dest. water for 10 sec. The air-dried sections were exposed to imaging plates and signals were detected by a phosphoimager device (Fuji BAS5000).

T1 sequence (P05067 672-713 limits assumed): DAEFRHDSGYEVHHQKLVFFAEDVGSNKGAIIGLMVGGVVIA

## O=C(NCC(=O)N1CCN(c2ccc(OCc3ccccc3)cc2)CC1)c1ccc([18F])nc1 [Example 10e, N-{2-[4-(4-Benzyloxy-phenyl)-piperazin-1-yl]-2-oxoethyl}-6-[F-18]-fluoro-nicotinamide]
[1]; 2 min post i.v. injection
  Organ distribution of F-18 signal, adrenals: 7.86 % ID/g
  Organ distribution of F-18 signal, blood: 2.01 % ID/g
  Organ distribution of F-18 signal, brain: 4.99 % ID/g
  Organ distribution of F-18 signal, fat: 1.79 % ID/g
  Organ distribution of F-18 signal, femur: 1.44 % ID/g
  Organ distribution of F-18 signal, heart: 5.18 % ID/g
  Organ distribution of F-18 signal, intestine: 2.13 % ID/g
  Organ distribution of F-18 signal, kidney: 8.58 % ID/g
  Organ distribution of F-18 signal, liver: 7.44 % ID/g
  Organ distribution of F-18 signal, lung: 4.31 % ID/g
  Organ distribution of F-18 signal, muscle: 2.40 % ID/g
  Organ distribution of F-18 signal, pancreas: 4.59 % ID/g
  Organ distribution of F-18 signal, skin: 1.37 % ID/g
  Organ distribution of F-18 signal, spleen: 1.96 % ID/g
  Organ distribution of F-18 signal, stomach: 3.69 % ID/g
  Organ distribution of F-18 signal, tail: 8.65 % ID/g
  Organ distribution of F-18 signal, testicle: 1.53 % ID/g
  Organ distribution of F-18 signal, thyroid: 2.51 % ID/g
[1]; 5 min post i.v. injection
  Organ distribution of F-18 signal, adrenals: 6.20 % ID/g
  Organ distribution of F-18 signal, blood: 1.98 % ID/g
  Organ distribution of F-18 signal, brain: 4.33 % ID/g
  Organ distribution of F-18 signal, fat: 2.66 % ID/g
  Organ distribution of F-18 signal, femur: 1.53 % ID/g
  Organ distribution of F-18 signal, heart: 4.49 % ID/g
  Organ distribution of F-18 signal, intestine: 2.40 % ID/g
  Organ distribution of F-18 signal, kidney: 7.92 % ID/g
  Organ distribution of F-18 signal, liver: 12.02 % ID/g
  Organ distribution of F-18 signal, lung: 3.86 % ID/g
  Organ distribution of F-18 signal, muscle: 2.07 % ID/g
  Organ distribution of F-18 signal, pancreas: 4.54 % ID/g
  Organ distribution of F-18 signal, skin: 1.76 % ID/g
  Organ distribution of F-18 signal, spleen: 1.99 % ID/g
  Organ distribution of F-18 signal, stomach: 2.84 % ID/g
  Organ distribution of F-18 signal, tail: 6.65 % ID/g
  Organ distribution of F-18 signal, testicle: 1.81 % ID/g
  Organ distribution of F-18 signal, thyroid: 2.62 % ID/g
[1]; 30 min post i.v. injection
  Organ distribution of F-18 signal, adrenals: 2.36 % ID/g
  Organ distribution of F-18 signal, blood: 1.38 % ID/g
  Organ distribution of F-18 signal, brain: 1.44 % ID/g
  Organ distribution of F-18 signal, fat: 1.95 % ID/g
  Organ distribution of F-18 signal, femur: 1.15 % ID/g
  Organ distribution of F-18 signal, heart: 1.85 % ID/g
  Organ distribution of F-18 signal, intestine: 8.20 % ID/g
  Organ distribution of F-18 signal, kidney: 6.29 % ID/g
  Organ distribution of F-18 signal, liver: 9.60 % ID/g
  Organ distribution of F-18 signal, lung: 1.93 % ID/g
  Organ distribution of F-18 signal, muscle: 1.16 % ID/g
  Organ distribution of F-18 signal, pancreas: 2.27 % ID/g
  Organ distribution of F-18 signal, skin: 1.39 % ID/g
  Organ distribution of F-18 signal, spleen: 1.08 % ID/g
  Organ distribution of F-18 signal, stomach: 2.40 % ID/g
  Organ distribution of F-18 signal, tail: 1.86 % ID/g
  Organ distribution of F-18 signal, testicle: 1.28 % ID/g
  Organ distribution of F-18 signal, thyroid: 1.26 % ID/g
[1]; 60 min post i.v. injection
  Organ distribution of F-18 signal, adrenals: 0.67 % ID/g
  Organ distribution of F-18 signal, blood: 0.55 % ID/g
  Organ distribution of F-18 signal, brain: 0.44 % ID/g
  Organ distribution of F-18 signal, fat: 0.67 % ID/g
  Organ distribution of F-18 signal, femur: 1.43 % ID/g
  Organ distribution of F-18 signal, heart: 0.69 % ID/g
  Organ distribution of F-18 signal, intestine: 10.63 % ID/g
  Organ distribution of F-18 signal, kidney: 2.61 % ID/g
  Organ distribution of F-18 signal, liver: 5.27 % ID/g
  Organ distribution of F-18 signal, lung: 0.89 % ID/g
  Organ distribution of F-18 signal, muscle: 0.34 % ID/g
  Organ distribution of F-18 signal, pancreas: 0.92 % ID/g
  Organ distribution of F-18 signal, skin: 0.51 % ID/g
  Organ distribution of F-18 signal, spleen: 0.35 % ID/g
  Organ distribution of F-18 signal, stomach: 1.09 % ID/g
  Organ distribution of F-18 signal, tail: 1.00 % ID/g
  Organ distribution of F-18 signal, testicle: 0.52 % ID/g
  Organ distribution of F-18 signal, thyroid: 0.56 % ID/g
[1]; 240 min post i.v. injection
  Organ distribution of F-18 signal, adrenals: 0.43 % ID/g
  Organ distribution of F-18 signal, blood: 0.09 % ID/g
  Organ distribution of F-18 signal, brain: 0.04 % ID/g
  Organ distribution of F-18 signal, fat: 0.15 % ID/g
  Organ distribution of F-18 signal, femur: 1.75 % ID/g
  Organ distribution of F-18 signal, heart: 0.11 % ID/g
  Organ distribution of F-18 signal, intestine: 6.90 % ID/g
  Organ distribution of F-18 signal, kidney: 0.50 % ID/g
  Organ distribution of F-18 signal, liver: 2.29 % ID/g
  Organ distribution of F-18 signal, lung: 0.10 % ID/g
  Organ distribution of F-18 signal, muscle: 0.06 % ID/g
  Organ distribution of F-18 signal, pancreas: 1.07 % ID/g
  Organ distribution of F-18 signal, skin: 0.08 % ID/g
  Organ distribution of F-18 signal, spleen: 0.06 % ID/g
  Organ distribution of F-18 signal, stomach: 0.50 % ID/g
  Organ distribution of F-18 signal, tail: 0.69 % ID/g
  Organ distribution of F-18 signal, testicle: 0.06 % ID/g
  Organ distribution of F-18 signal, thyroid: 0.35 % ID/g
[2]
  autoradiographical analysis of binding to cryosections from cortex: Specific binding in plaque-rich regions of AD samples
